According to PubChem BioAssay AID1963440 (Molecular Pharmacology Branch, DTP, NCI, 2024):

Tested on: NCI-H1417 complex spheroids, growth % test/control
Assay: Anticancer human tumor NCI-H1417 cell line growth inhibition [Asc];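 note: spheroids exposed to compounds for 7 days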;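 for viability, T/C: 100% = DMSO vehicle control wells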
Conditions: for IC50: curve of first compound; for viability, T/C: stronger effect = lower value
Procedure: Multicellular complex tumor spheroid response to apoptosis pathway targeting inhibitors Alrizomadlin, Pelcitoclax, and Dasminapant in combination with a variety of drugs and investigational agents in selected tumor cell lines
The MDM2 inhibitor alrizomadlin, the Bcl-2/Bcl-xL inhibitor pelcitoclax, and the IAPs inhibitor dasminapant were evaluated both individually and in combination with standard of care and investigational anticancer small molecules within a complex spheroid model of solid tumors. . Complex spheroids include a stromal component modeled by human endothelial cells (HUVEC) and fibroblasts modeled by human mesenchymal stem cells (MSCs). The concentration ranges selected for each drug and investigational agent were based upon clinically achievable concentrations if the clinical Cmax of the agent was known.
Compounds. The drugs and investigational agents: alrizomadlin (APG-115; NSC831270), pelcitoclax (APG-1252; NSC835773), dasminapant (APG-1387;NSC834197), TAK-243 (NSC785004), copanlisib (NSC809693), olaparib (NSC753686), talazoparib (NSC767125), cobimetinib (NSC 768068), eltanexor (KPT-8602, NSC 794443), abemaciclib (NSC 768073), sotorasib (NSC818433), adagrasib (NSC 831453), MRTX-1133 (NSC 836407), Iadademestat (ORY1001, NSC 806812), and RMC-4630 (NSC839698), were obtained from the NCI Developmental Therapeutics Program Chemical Repository. The FDA-approved anticancer drug set is available from the Developmental Therapeutics Program at https://dtp.cancer.gov/organization/dscb/obtaining/available plates.htm. […] The stock solutions were prepared in dimethyl sulfoxide (DMSO, Sigma-Aldrich, St. Louis, MO, cat. D2650) at 800-fold the tested concentration and stored at -70 degrees C prior to their use. All drugs and investigational agents were tested over a range starting from a high concentration at or near the clinical Cmax and decreasing in half-log increments. If the clinical Cmax for an agent had not been determined, the highest concentration tested was 10 microM.
The patient-derived cancer (PDC) cell lines include five colon adenocarcinomas: 186277-243-T-J2-PDC, 616215-338-R-J1-PDC, 439559-082-T-J2-PDC, 463943-066-T-J2-PDC, and 519858-162-T-J1-PDC; three pancreatic carcinomas: 323965-272-R-J2-PDC, 521955-158-R6-J3-PDC, and 521955-158-R2-J5-PDC; two uterine sarcomas: 327498-152-R-J2-PDC and 993429-296-R-J1-PDC; two rhabdomyosarcomas: 755483-174-R-J1-PDC and 772245-204-R-J1-PDC; two soft tissue sarcomas: 126254-015-R-J1-PDC and 494315-158-R-J1-PDC; two malignant fibrous histiocytomas: 317291-083-R-J1-PDC and 596521-263-R-J1-PDC; two breast carcinomas: 171881-019-R-J1-PDC and 885512-296-R-J2-PDC; and one ovarian carcinoma: 6556581-035-R-J-PDC were obtained from the NCI PDMR, (https://pdmr.cancer.gov). The established cell lines HSSY-2 synovial sarcoma (RRID:CVCL 8719), SYO-1 synovial sarcoma (RRID:CVCL_7146), MPNST malignant peripheral neural sheath tumor were obtained from the Sloan Kettering Institute. The following established cell lines were purchased from the American Type Culture Collection (ATCC, Manassas, VA), Sor the received from the NCI repository:, PANC-1 pancreatic carcinoma (CRL-1469, RRID:CVCL_0480), OVCAR-5 ovarian carcinoma (RRID:CVCL_1628), OVCAR-8 ovarian carcinoma (RRID:CVCL_1629), , MCF-7 breast carcinoma (CRL-12584, RRID:CVCL_0031), MDA-MB-231 breast carcinoma (CRL-12532, RRID:CVCL_0062), NCI-H1876 small cell lung carcinoma (CRL-5902, RRID:CVCL_1503), NCI-H510A small cell lung carcinoma (HTB-184, RRID:CVCL_1565), NCI-H1417 (CRL-5869, RRID:CVCL_1469), and NCI-H196 small cell lung carcinoma (CRL-5823, RRID:CVCL_1509). Dr. Peter Houghton (Greehey Children's Cancer Research Institute, University of Texas Health Science Center, San Antonio, TX) provided Rh-18 rhabdomyosarcoma (RRID:CVCL_1659). Pooled donor human umbilical vein endothelial cells (HUVEC, Lonza, cat. CC-2519) and human mesenchymal stem cells (hMSC, Lonza, cat. PT-2501) were purchased from Lonza (Walkersville, MD).
Cell Culture. […]

[1] = second compound 0.03 µM, first compound 0.0316 µM
[2] = second compound 0.03 µM, first compound 0.1 µM
[3] = second compound 0.0949 µM, first compound 0.0316 µM
[4] = second compound 0.0949 µM, first compound 0.1 µM
[5] = second compound 0.3 µM, first compound 0.0316 µM
[6] = second compound 0.3 µM, first compound 0.1 µM
[7] = second compound 0.949 µM, first compound 0.0316 µM
[8] = second compound 0.949 µM, first compound 0.1 µM
[9] = second compound 3 µM, first compound 0.0316 µM
[10] = second compound 3 µM, first compound 0.1 µM

## Cn1ncnc1[C@H]1c2n[nH]c(=O)c3cc(F)cc(c23)N[C@@H]1c1ccc(F)cc1 + CCN1C(C(=O)NC23CCC(C(=O)O)(CC2)CC3)C(c2cccc(Cl)c2F)C2(C(=O)Nc3cc(Cl)ccc32)C12CCCCC2
Second compound 0.03 µM
  IC50: 36.5 nM
Second compound 0.0949 µM
  IC50: 13.9 nM
Second compound 0.3 µM
  IC50: 9.66 nM
Second compound 0.949 µM
  IC50: 12.9 nM
Second compound 3 µM
  IC50: 10 nM
Second compound 0.03 µM, first compound 0.000316 µM
  viability, T/C: 99.3%
Second compound 0.03 µM, first compound 0.001 µM
  viability, T/C: 94%
Second compound 0.03 µM, first compound 0.00316 µM
  viability, T/C: 87.5%
Second compound 0.03 µM, first compound 0.01 µM
  viability, T/C: 66%
[1]
  viability, T/C: 52.6%
[2]
  viability, T/C: 42%
Second compound 0.0949 µM, first compound 0.000316 µM
  viability, T/C: 91.8%
Second compound 0.0949 µM, first compound 0.001 µM
  viability, T/C: 91.7%
Second compound 0.0949 µM, first compound 0.00316 µM
  viability, T/C: 90%
Second compound 0.0949 µM, first compound 0.01 µM
  viability, T/C: 52.3%
[3]
  viability, T/C: 49.9%
[4]
  viability, T/C: 38.1%
Second compound 0.3 µM, first compound 0.000316 µM
  viability, T/C: 94.5%
Second compound 0.3 µM, first compound 0.001 µM
  viability, T/C: 90.4%
Second compound 0.3 µM, first compound 0.00316 µM
  viability, T/C: 79.2%
Second compound 0.3 µM, first compound 0.01 µM
  viability, T/C: 48.5%
[5]
  viability, T/C: 43.6%
[6]
  viability, T/C: 39.9%
Second compound 0.949 µM, first compound 0.000316 µM
  viability, T/C: 83.6%
Second compound 0.949 µM, first compound 0.001 µM
  viability, T/C: 87.8%
Second compound 0.949 µM, first compound 0.00316 µM
  viability, T/C: 75.8%
Second compound 0.949 µM, first compound 0.01 µM
  viability, T/C: 55.1%
[7]
  viability, T/C: 34.4%
[8]
  viability, T/C: 34.8%
Second compound 3 µM, first compound 0.000316 µM
  viability, T/C: 80%
Second compound 3 µM, first compound 0.001 µM
  viability, T/C: 80.8%
Second compound 3 µM, first compound 0.00316 µM
  viability, T/C: 76.3%
Second compound 3 µM, first compound 0.01 µM
  viability, T/C: 49.6%
[9]
  viability, T/C: 39.6%
[10]
  viability, T/C: 34.5%

## O=C(c1cc(Cc2n[nH]c(=O)c3ccccc23)ccc1F)N1CCN(C(=O)C2CC2)CC1 + CCN1C(C(=O)NC23CCC(C(=O)O)(CC2)CC3)C(c2cccc(Cl)c2F)C2(C(=O)Nc3cc(Cl)ccc32)C12CCCCC2
Second compound 0.03 µM
  IC50: 2860 nM
Second compound 0.0949 µM
  IC50: 3970 nM
Second compound 0.3 µM
  IC50: 2690 nM
Second compound 0.949 µM
  IC50: 2960 nM
Second compound 3 µM
  IC50: 3210 nM
[1]
  viability, T/C: 98.2%
[2]
  viability, T/C: 96.3%
Second compound 0.03 µM, first compound 0.316 µM
  viability, T/C: 107%
Second compound 0.03 µM, first compound 1 µM
  viability, T/C: 82.3%
Second compound 0.03 µM, first compound 3.16 µM
  viability, T/C: 48%
Second compound 0.03 µM, first compound 10 µM
  viability, T/C: 33.6%
[3]
  viability, T/C: 101%
[4]
  viability, T/C: 110%
Second compound 0.0949 µM, first compound 0.316 µM
  viability, T/C: 88.7%
Second compound 0.0949 µM, first compound 1 µM
  viability, T/C: 84.8%
Second compound 0.0949 µM, first compound 3.16 µM
  viability, T/C: 53.6%
Second compound 0.0949 µM, first compound 10 µM
  viability, T/C: 29.9%
[5]
  viability, T/C: 101%
[6]
  viability, T/C: 103%
Second compound 0.3 µM, first compound 0.316 µM
  viability, T/C: 98%
Second compound 0.3 µM, first compound 1 µM
  viability, T/C: 76.8%
Second compound 0.3 µM, first compound 3.16 µM
  viability, T/C: 46.1%
Second compound 0.3 µM, first compound 10 µM
  viability, T/C: 31.2%
[7]
  viability, T/C: 95.3%
[8]
  viability, T/C: 105%
Second compound 0.949 µM, first compound 0.316 µM
  viability, T/C: 82.9%
Second compound 0.949 µM, first compound 1 µM
  viability, T/C: 76.2%
Second compound 0.949 µM, first compound 3.16 µM
  viability, T/C: 47.3%
Second compound 0.949 µM, first compound 10 µM
  viability, T/C: 29.8%
[9]
  viability, T/C: 94%
[10]
  viability, T/C: 90.1%
Second compound 3 µM, first compound 0.316 µM
  viability, T/C: 95.9%
Second compound 3 µM, first compound 1 µM
  viability, T/C: 74.8%
Second compound 3 µM, first compound 3.16 µM
  viability, T/C: 51.5%
Second compound 3 µM, first compound 10 µM
  viability, T/C: 28.3%
